Tests used:
Experiment in all cases: Cytotoxicity assay (MTT assay)
Assay type in all cases: cell-based, human
BEL-7404 cells = conditions: for Inhibitory rates (%): BEL-7404, 20 μM
Experimental: (§1) To evaluate the cytotoxicity of chiral platinum(II) complexes, HeLa, BEL-7402, MGC80-3, BEL-7404, A549, Hep-G2 and HL-7702 cells (normal cells) were treated with varying concentrations of complexes 1–6 and cisplatin (positive control, cisplatin was dissolved at a concentration of 1.0 mM in 0.154 M NaCl) for 24 h and 48 h. The cell viability of each experimental group was examined by MTT assays. […] [61, 62]. […] Therefore, complex 6 (10 μM) was selected for cell apoptosis analysis by flow-cytometry, RT-PCR, caspase-3/9 activation assays, western blot and transfection assays in BEL-7404 cells for 24 h. In addition, this observed difference in in vitro cytotoxicity between the three complexes 4–6 could be due to the influence of the chirality of the FOA ligand [68]. […]
(§2) Materials 100 U/mL penicillin and 100 μg/mL streptomycin in 25 cm2 culture flasks at 37 °C humidified atmosphere with Tris, RNase A, and propidium iodide (PI) were 5% CO2. All cells to be tested in the following assays have purchased from Sigma. The antibody of mutp53, a passage number of 3-6. […]
(§3) were purchased from Abcam. Unless otherwise stated, BEL-7404, A549, and Hep-G2 cancer-cell lines and HL-spectroscopic titration experiments were carried out in 7702 normal cells) per well were seeded in triplicate in TBS (10 mM pH7.35 Tris-HCl, containing 100 mM KCl). 96-well plates and incubated for 24 h at 37 °C and 5.0% The total RNA isolation kit and the two-step RT-PCR kit CO2/95.0% air. Then graded amounts of compound were purchased from TIANGEN. DNA oligomers (highly added to the wells in 10.0 μL of FBS free culture medium polymerized stored at 4 °C; long-term storage at −20 °C) and the plates were incubated in a 5% CO2 humidified are listed in Supplementary Table 1 and were obtained from atmosphere for 24 h and 48 h. Six replica wells were used Shanghai Sangon Biological Engineering Technology & as controls. Each the cells were grew for 12.0 h before Services (Shanghai, China). All tumor cell lines (HeLa, treatment to reach 70.0% confluency and 20.0 μL of tested BEL-7402, MGC80-3, BEL-7404, A549, Hep-G2 cancer- various concentrations of compounds were added to each cell lines and normal liver cell line HL-7702) were obtained well. The final concentration of the tested complexes from the Shanghai Institute for Biological Science (China). or compounds were kept at 1.25, 2.5, 5, 10, 20 μM, Stock solutions of all the compounds (2.0 mM) were made respectively. After 24 h or 48 h of culture, 0.1 mg of in DMSO, and further dilutions to working concentrations MTT (in 20 μL of PBS) was added to each well, and cells were made with corresponding buffer. were incubated at 37 °C for 6 h. The formed formazan crystals were then dissolved in 100 μL of DMSO and the Instrumentation absorbance was read by enzyme labeling instrument with Infrared spectra were obtained on a Perkine Elmer 490/630 nm double wavelength measurement. The final FT-IR Spectrometer. Elemental analyses (C, H, N) IC50 values were calculated by the Bliss method (n = 5). were carried out on a Perkin Elmer Series II CHNS/O All tests were repeated in at least three independent trials. […]
(§4) 10.0 min. The cell pellet obtained was dissolved in 1.0 M
(§5) The region between 200 and 400 nm was scanned for each NaOH (1.0 mL) and diluted with 2.0% (v/v) HNO3 (5.0 sample. MTT assay was performed on M1000 microplate mL) for determining whole cell Pt content. Another set reader (Tecan Trading Co. Ltd, Shanghai, China). Cell was treated similarly, nuclear proteins, nuclear fraction, cycle and apoptosis analysis was recorded on FACS Aria cytoplasmic protein, membrane proteins and other fraction II Flow Cytometer (BD Biocsiences, San Jose, USA). were isolated as described by Chen and Schreiber et al. And the each final solution was made up to 5.0 mL
(§6) Cytotoxicity assay (MTT assay) using 2.0% (v/v) HNO3. The amount of Pt taken up by the cells was determined by ICP-MS. The instrument was […]

Hep-G2 cells = conditions: for Inhibitory rates (%): Hep-G2, 20 μM
Experimental: as §1, §2, §3, §4, §5, §6

BEL-7402 cells = conditions: for Inhibitory rates (%): BEL-7402, 20 μM
Experimental: as §1, §2, §3, §4, §5, §6

MGC80-3 cells = conditions: for Inhibitory rates (%): MGC80-3, 20 μM
Experimental: as §1, §2, §3, §4, §5, §6

A549 cells = conditions: for Inhibitory rates (%): A549, 20 μM
Experimental: as §1, §2, §3, §4, §5, §6

HeLa cells = conditions: for Inhibitory rates (%): 20 μM
Experimental: as §1, §2, §3, §4, §5, §6

HL-7702 normal cells = conditions: for Inhibitory rates (%): HL-7702, 20 μM
Experimental: To evaluate the cytotoxicity of chiral platinum(II) complexes, HeLa, BEL-7402, MGC80-3, BEL-7404, A549, Hep-G2 and HL-7702 cells (normal cells) were treated with varying concentrations of complexes 1–6 and cisplatin (positive control, cisplatin was dissolved at a concentration of 1.0 mM in 0.154 M NaCl) for 24 h and 48 h. The cell viability of each experimental group was examined by MTT assays. […] [61, 62].
as §2, §3

Row | Substance | Inhibitory rates (%) (BEL-7404 cells; 24 h) | Inhibitory rates (%) (BEL-7404 cells; 48 h) | IC50 (BEL-7404 cells; BEL-7404, 24 h) [µM] | IC50 (BEL-7404 cells; BEL-7404, 48 h) [µM] | Inhibitory rates (%) (Hep-G2 cells; 24 h) | Inhibitory rates (%) (Hep-G2 cells; 48 h) | IC50 (Hep-G2 cells; Hep-G2, 24 h) [µM] | IC50 (Hep-G2 cells; Hep-G2, 48 h) [µM] | Inhibitory rates (%) (BEL-7402 cells; 24 h) | Inhibitory rates (%) (BEL-7402 cells; 48 h) | IC50 (BEL-7402 cells; BEL-7402, 24 h) [µM] | IC50 (BEL-7402 cells; BEL-7402, 48 h) [µM] | Inhibitory rates (%) (MGC80-3 cells; 24 h) | Inhibitory rates (%) (MGC80-3 cells; 48 h) | IC50 (MGC80-3 cells; MGC80-3, 24 h) [µM] | IC50 (MGC80-3 cells; MGC80-3, 48 h) [µM] | Inhibitory rates (%) (A549 cells; 24 h) | Inhibitory rates (%) (A549 cells; 48 h) | IC50 (A549 cells; A549, 24 h) [µM] | IC50 (A549 cells; A549, 48 h) [µM] | further results
1 | cis-[PtCl2(R-(+)-FOA)] [complex 5] | 46.1 ± 1.1 | 55.9 ± 2.7 | 22.5 ± 1.3 | 14.5 ± 0.5 | 16.5 ± 1.4 | 23.3 ± 0.5 | 93.4 ± 1.2 | 35.7 ± 1.5 | 35.6 ± 2.1 | 42.1 ± 0.7 | 42.3 ± 1.9 | 38.4 ± 1.4 | 11.3 ± 0.4 | 19.8 ± 1.8 | 135.1 ± 0.5 | 37.4 ± 1.2 | 28.9 ± 0.5 | 35.9 ± 2.6 | 56.3 ± 0.7 | 17.2 ± 0.1 | Inhibitory rates (%) (HeLa cells; 24 h): 8.6 ± 1.5%; Inhibitory rates (%) (HeLa cells; 48 h): 9.9 ± 0.7%; IC50 (HeLa cells; 24 h): 168.6 ± 1.4 µM; IC50 (HeLa cells; 48 h): 64.2 ± 0.2 µM; selectivity index factor, IC50 (normal HL-7702 cells)/IC50 (BEL-7404 tumor cells) (HL-7702 normal cells; 24 h): 3.6; selectivity index factor, IC50 (normal HL-7702 cells)/IC50 (BEL-7404 tumor cells) (HL-7702 normal cells; 48 h): 3.9; Inhibitory rates (%) (HL-7702 normal cells; 24 h): 30.6 ± 2.1%; Inhibitory rates (%) (HL-7702 normal cells; 48 h): 37.5 ± 5.3%; IC50 (HL-7702 normal cells; HL-7702, 24 h): 80.1 ± 1.8 µM; IC50 (HL-7702 normal cells; HL-7702, 48 h): 55.8 ± 3.1 µM
2 | cis-[PtCl2(R/S-(±)-FOA)] [complex 4] | 67.3 ± 1.3 | 80.0 ± 4.3 | 12.5 ± 1.1 | 8.7 ± 0.1 | 20.8 ± 0.3 | 27.6 ± 1.1 | 84.6 ± 0.4 | 29.1 ± 0.8 | 41.2 ± 0.6 | 48.6 ± 1.3 | 32.5 ± 0.5 | 20.7 ± 0.9 | 22.0 ± 1.9 | 24.9 ± 1.4 | 80.6 ± 2 | 32.1 ± 1.8 | 57.6 ± 0.6 | 77.8 ± 0.1 | 18.6 ± 0.5 | 9.1 ± 0.6 | Inhibitory rates (%) (HeLa cells; 24 h): 18.5 ± 0.7%; Inhibitory rates (%) (HeLa cells; 48 h): 24.1 ± 2.1%; IC50 (HeLa cells; 24 h): 90.5 ± 0.7 µM; IC50 (HeLa cells; 48 h): 38.1 ± 1.5 µM; selectivity index factor, IC50 (normal HL-7702 cells)/IC50 (BEL-7404 tumor cells) (HL-7702 normal cells; 24 h): 6.8; selectivity index factor, IC50 (normal HL-7702 cells)/IC50 (BEL-7404 tumor cells) (HL-7702 normal cells; 48 h): 6.7; Inhibitory rates (%) (HL-7702 normal cells; 24 h): 28.3 ± 1.7%; Inhibitory rates (%) (HL-7702 normal cells; 48 h): 31.6 ± 2.4%; IC50 (HL-7702 normal cells; HL-7702, 24 h): 85.4 ± 1.5 µM; IC50 (HL-7702 normal cells; HL-7702, 48 h): 58.5 ± 5.5 µM
3 | cis-[PtCl2(S-(–)-FOA)] [complex 6] | 70.9 ± 0.7 | 81.3 ± 0.4 | 10.1 ± 0.6 | 7.9 ± 0.3 | 30.2 ± 1.6 | 39.3 ± 2.2 | 50.1 ± 1.8 | 17.7 ± 1.2 | 50.5 ± 1.6 | 58.4 ± 2.1 | 20.6 ± 1.5 | 15.3 ± 2.2 | 25.1 ± 0.5 | 26.5 ± 1.1 | 72.8 ± 0.4 | 31.5 ± 1.7 | 65.3 ± 1.3 | 84.7 ± 2.2 | 15.3 ± 1.2 | 8.2 ± 0.5 | Inhibitory rates (%) (HeLa cells; 24 h): 21.1 ± 0.9%; Inhibitory rates (%) (HeLa cells; 48 h): 25.1 ± 1.4%; IC50 (HeLa cells; 24 h): 78.2 ± 0.9 µM; IC50 (HeLa cells; 48 h): 31.8 ± 0.7 µM; selectivity index factor, IC50 (normal HL-7702 cells)/IC50 (BEL-7404 tumor cells) (HL-7702 normal cells; 24 h): 11.8; selectivity index factor, IC50 (normal HL-7702 cells)/IC50 (BEL-7404 tumor cells) (HL-7702 normal cells; 48 h): 10.7; Inhibitory rates (%) (HL-7702 normal cells; 24 h): 20.7 ± 1.6%; Inhibitory rates (%) (HL-7702 normal cells; 48 h): 33.9 ± 2.2%; IC50 (HL-7702 normal cells; HL-7702, 24 h): 119 ± 1.5 µM; IC50 (HL-7702 normal cells; HL-7702, 48 h): 84.2 ± 1.2 µM

— publication PMC5617480 (Oncotarget, 2017)
